The values below come from EP0941988A2, “Benzamidoxime derivatives, intermediates and process for their preparation and their use as fungicides” (BASF AKTIENGESELLSCHAFT, priority 1998, dated 1999).

Test [1] has as its system Weizenmehltau (Erysiphe graminis f.sp.tritici). In words: Efficacy against wheat powdery mildew, protective spray on wheat seedlings cv. "Frühgold" (Beispiel 2). The test is classed as in vivo. Particulars: inoculated 24 h after spray coating dried, visual rating after 7 days, concentration not given, untreated plants 80 % infested. Here is the method: Beispiel 2: Wirksamkeit gegen Weizenmehltau
Blätter von in Töpfen gewachsenen Weizenkeimlingen der Sorte "Frühgold" wurden mit wäßriger Wirkstoffaufbereitung, die aus einer Stammlösung bestehend aus 10 % Wirkstoff, 63% Cyclohexanon und 27 % Emulgiermittel angesetzt wurde, bis zur Tropfnässe besprüht und 24 h nach dem Antrocknen des Spritzbelages mit Sporen des Weizenmehltaus (Erysiphe graminis f.sp.tritici) bestäubt. Die Versuchspflanzen wurden anschließend im Gewächshaus bei Temperaturen zwischen 20 und 22 °C und 75 bis 80 % relativer Luftfeuchtigkeit aufgestellt. Nach 7 Tagen wurde das Ausmaß der Mehltauentwicklung visuell in % der gesamten Blattfläche ermittelt.

The test system of test [2] is Weizenmehltau (Erysiphe graminis forma specialis tritici). The experiment in a line: Efficacy against wheat powdery mildew, protective spray on wheat seedlings cv. "Kanzler" (Anwendungsbeispiel 1). The test is classed as in vivo. The conditions noted are these: inoculated 24 h after spraying, rating after 7 days, untreated 80 %. The source says:
Anwendungsbeispiel 1 - Wirksamkeit gegen Weizenmehltau
Blätter von in Töpfen gewachsenen Weizenkeimlingen der Sorte ? Kanzler" wurden mit wäßriger Wirkstoffaufbereitung, die aus einer Stammlösung bestehend aus 10 % Wirkstoff, 63 % Cyclohexanon und 27 % Emulgiermittel angesetzt wurde, bis zur Tropfnässe besprüht und 24 Stunden nach dem Antrocknen des Spritzbelages mit Sporen des Weizenmehltaus (Erysiphe graminis forma specialis tritici) bestäubt. Die Versuchspflanzen wurden anschließend im Gewächshaus bei Temperaturen zwischen 20 und 24°C und 60 bis 90 % relativer Luftfeuchtigkeit aufgestellt. Nach 7 Tagen wurde das Ausmaß der Mehltauentwicklung visuell in % Befall der gesamten Blattfläche ermittelt.

As to `O=C(Cc1ccccc1)NC(=NOCC1CC1)c1c(Cl)ccc(F)c1Cl` [II.1, N-Phenylacetyl-2,6-dichlor-5-fluorbenzamid-[O-cyclopropylmethyl]oxim], the “Ausmaß der Mehltauentwicklung (Befall)” value in test [1] is “keinen Befall”. Besides, the “%-Befall der Blätter nach Applikation von ... ppm-haltiger wäßriger Wirkstoffaufbereitung” value in test [2] (16 ppm) and in test [2] (63 ppm) was 0% throughout.
